Experimental data from patent US11446299B2, “Carbazole EHop-016 derivatives as anticancer and anti-migratory agents” (UNIVERSITY OF PUERTO RICO, priority 2017, dated 2022).
“Also recorded” adds a separate entry of the source.

Columns and labels:
[1] = tested on: MDA-MB-231 metastatic breast cancer cells; experiment: Cell viability, CellTiter 96 AQueous One Solution Cell Proliferation Assay; assay type: cell-based, human; details: HV-107 24 or 48 h, HV-118 48 h
Procedure: (§1) FIG. 7. Effect of HV-107 on cell viability. Cells were treated with vehicle control (0.5% DMSO) or varying concentrations of HV-107 (250-6000 nM) for 48 h. Cell viability was measured using the CellTiter 96® AQueous One Solution Cell Proliferation Assay from Promega, as per manufacturer's instruction. Relative cell viability is presented for non-cancerous mammary epithelial cells (MCF10A) or metastatic breast cancer cells MDA-MB-231 or MDA-MB-435. N=3-4, each with three technical replicates; Error bars represent ±SEM; * p≤0.05.
(§2) FIG. 9. Effect of HV-118 on cell viability. Cells were treated with vehicle control (0.5% DMSO) or varying concentrations of HV-118 (10-500 nM) for 48 h. Cell viability was measured using the CellTiter 96® AQueous One Solution Cell Proliferation Assay from Promega, as per manufacturer's instruction. Relative cell viability is presented for human non-cancerous mammary epithelial cells (MCF10A) or human metastatic breast cancer cells MDA-MB-231 or MDA-MB-435. N=3, each with three technical replicates; error bars represent ±SEM; * p≤0.05.
(§3) Cells were treated with ehicle control (0.5% DMSO) or varying concentrations of HV-107 (250-8000 nM) for 24 or 48 h. Cell viability was measured using the CellTiter 96® AQueous One Solution Cell Proliferation Assay from Promega, as per manufacturer's instruction. Relative cell viability is presented for non-cancerous mammary epithelial cells MCF10A (FIG. 7) or metastatic breast cancer cells MDA-MB-231 or MDA-MB-435. N=3, each with three technical replicates; Error bars represent ±SEM; * p≤0.05.
as §2, with “Cells” for “FIG. 9. Effect of HV-118 on cell viability. Cells”, “MCF10A (FIG. 9)” for “(MCF10A)”

[2] = tested on: MDA-MB-435 metastatic breast cancer cells; experiment: as above; assay type: cell-based, human; details: HV-107 24 or 48 h, HV-118 48 h
Procedure: as §1, §2, §3
as §2, with “Cells” for “FIG. 9. Effect of HV-118 on cell viability. Cells”, “MCF10A (FIG. 9)” for “(MCF10A)”

[3] = tested on: non-cancerous mammary epithelial cells MCF10A; experiment: as above; assay type: cell-based, human; details: for toxicity / effect on viability of non-cancerous mammary epithelial cells, in words: MCF10A, at the concentrations tested
Procedure: as §1, §2, §3
as §2, with “Cells” for “FIG. 9. Effect of HV-118 on cell viability. Cells”, “MCF10A (FIG. 9)” for “(MCF10A)”

[4] = tested on: caspase 3; experiment: Caspase-Glo 3/7 assay; assay type: cell-based, human
Procedure: FIG. 15 (A-D). Effect of HV-107 and HV-118 on Caspase 3/7 activity. FIG. 15 A, C. MDA-MB-231 and FIG. 15 B, D. MDA-MB-435 human metastatic breast cancer cells were treated for 48 or 72 h with 0, 500 or 1000 nM HV-107, 100 or 200 nM HV-118. Caspase 3/7 activity was measured using the Caspase-Glo 3/7 Assay (Promega, Corp.) as per manufacturer's instruction. N=4: error bars represent ±SEM; * p≤0.05.
(§4) Subsequently, the effects of HV-107 and HV-118 were evaluated in cell survival and cell migration, known Rac-regulated cell functions relevant for cancer progression. The effects of HV-107 and HV-118 on cancer cell survival were determined by measuring the levels of active caspase 3 in MDA-MB-231 and MDA-MB-435 metastatic breast cancer cells after treatment with HV-107 at 500 and 1000 nM, or HV-118 at 100 and 200 nM for 48-72 h. After 48 h, HV-107 caused a significant 1.4-1.5 fold increase in caspase 3 activity in MDA-MB-231 (at 500 and 1000 nM) and MDA-MB-435 (at 1000 nM) cells. […] The effects of both compounds were also examined in the activity of Akt, an important kinase that promotes survival signaling, is frequently hyperactivated in malignant cancers, and can be regulated by Rac. Because Akt is activated by phosphorylation events, the effects of HV-107 and HV-118 were analyzed in Akt phosphorylation by western blot (FIG. 16 (A-D)).

[5] = tested on: Akt; experiment: Akt phosphorylation by western blot; assay type: cell-based, human; details: 24 h
Procedure: FIG. 16 (A-D). Inhibition of pAKT by HV-107 and HV-118. FIG. 16 A, C. MDA-MB-231 and FIG. 16 B, D. MDA-MB-435 human metastatic breast cancer cells were treated for 24 h with 0, 250, 500 or 1000 nM HV-107, 100 or 200 nM HV-118. After treatment, total protein was extracted, and equal amounts of proteins were western blotted for total and phosphorylated Akt (pAkt). Positive bands were quantified using image J. N=4-6; error bars represent t SEM; * p≤0.05.
as §4

[6] = tested on: MDA-MB-231 and MDA-MB435 metastatic breast cancer cell lines; experiment: Wound healing assay of HV-107 and HV-118; assay type: cell-based; details: Homo sapiens, 24 h, read-out: inhibition of cell migration
Procedure: FIG. 17 (A-B). Effect of HV-107 and HV-118 on cell migration. Wounds were created on confluent monolayers of MDA-MB-231 or MDA-MB-435 human metastatic breast cancer cells. Immediately after, cells were treated for 24 h with FIG. 17A. 0, 1000, or 2000 nM of HV-107; and FIG. 17B. 0, 100, or 200 nM HV-118. The distance traveled by HV-107 and HV-118 treated cells that migrated to close the wound was quantified relative to the distance traveled by control-treated cells. N=4-7; error bars represent ±SEM; * p≤0.05.
Finally, wound healing assays were performed to assess the effects of HV-107 and HV-118 on metastatic breast cancer cell migration.

Compound: CCn1c2ccccc2c2cc(C(=O)Nc3cccnc3N3CCOCC3)ccc21 [Compound 11b, 9-Ethyl-9H-carbazole-3-carboxylic Acid (2-morpholin-4-yl-pyridin-3-yl)-amide]
- concentration at which viability is significantly inhibited [1]: ≥ 500 nM
- concentration at which viability is significantly inhibited [2]: ≥ 500 nM
- toxicity / effect on viability of non-cancerous mammary epithelial cells, in words ([3]; listed as HV-107): minimal toxicity; also recorded: minimal or no inhibition
- toxicity to non-cancerous mammary epithelial cells, in words ([3]; at concentrations ≥1 μM): not toxic
- fold increase in caspase 3 activity ([4]; MDA-MB-231, 48 h, 500 and 1000 nM): 1.4-1.5 fold
- fold increase in caspase 3 activity ([4]; MDA-MB-435, 48 h, 1000 nM): 1.4-1.5 fold
- inhibition at 1 µM ([5]; Homo sapiens, MDA-MB-435, 1000 nM): 25%
- inhibition of Akt phosphorylation ([5]; MDA-MB-231, 250-1000 nM): 50-60%
- inhibition at 2 µM ([6]; 2000 nM): 30 to 50%

Compound: CCn1c2ccccc2c2cc(Nc3cc(C)nc(Cl)n3)ccc21 [HV-118, (2-Chloro-6-methyl-pyrimidin-4-yl)-(9-ethyl-9H-carbazol-3-yl)-amine]
- concentration at which viability is significantly inhibited [1]: ≥ 50 nM
- concentration at which viability is significantly inhibited [2]: ≥ 50 nM
- toxicity / effect on viability of non-cancerous mammary epithelial cells, in words [3]: minimal effects; also recorded: minimal or no inhibition; also recorded: minimal toxicity
- fold increase in caspase 3 activity ([4]; MDA-MB-231, 48 h, 100 and 200 nM): 1.6-1.8 fold
- fold increase in caspase 3 activity ([4]; MDA-MB-435, 72 h, 'the same level' as in MDA-MB-231): 1.6-1.8 fold
- inhibition of Akt phosphorylation ([5]; both MDA-MB-231 and MDA-MB-435, 100 and 200 nM): 40-60%
- inhibition at 0.1 µM ([6]; 100 nM): ~60%
- inhibition at 0.2 µM ([6]; 200 nM): ~80%
